Like-named read-outs stand apart in the source and are kept apart here.
Tests used:
P. falciparum DXR = target: T1, P. falciparum DXR (Plasmodium falciparum, UniProt Q8IKG4); settings: read-out: Pf DXR IC50; Table 2, footnote a: Gießmann et al. 2008; cited from earlier work
T1 sequence (Q8IKG4 73-488): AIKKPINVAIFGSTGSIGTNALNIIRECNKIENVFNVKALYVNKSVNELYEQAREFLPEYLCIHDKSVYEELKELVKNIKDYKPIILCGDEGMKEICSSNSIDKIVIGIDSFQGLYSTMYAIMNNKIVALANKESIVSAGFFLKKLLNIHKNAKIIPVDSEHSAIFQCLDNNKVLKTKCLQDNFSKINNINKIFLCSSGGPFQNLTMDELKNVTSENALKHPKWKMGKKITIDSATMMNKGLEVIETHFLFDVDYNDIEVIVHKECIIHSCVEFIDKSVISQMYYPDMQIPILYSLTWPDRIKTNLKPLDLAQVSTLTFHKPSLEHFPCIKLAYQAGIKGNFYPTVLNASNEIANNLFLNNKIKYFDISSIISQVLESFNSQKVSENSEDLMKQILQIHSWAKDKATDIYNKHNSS

P. falciparum [1] = settings: Table 6, footnote b: Edwards et al. 2017; read-out: P.f. IC50; cited from earlier work
Mtb = settings: footnote a: Jackson et al. 2014, cited from earlier work
P. falciparum [2] = test: Growth inhibition against P. falciparum; type: cell-based; settings: Plasmodium falciparum
[3] = tested on: P. falciparum had1 mutant strain; type: cell-based; settings: in words
DXR = settings: versus substrate DOXP and cofactor NADPH; cited from earlier work

SMILES	IC50 (P. falciparum DXR) [nM]	IC50 (P. falciparum [1]) [nM]	Mtb MIC99 Gast/Fe (Mtb; minimal media (GAST-Fe))	Mtb MIC99 7H9 (Mtb; rich media (7H9))	IC50 (P. falciparum [2]; Table 3, diethyl phosphonate analogs, read-out: P.f. IC50) [µg/mL]	IC50 (P. falciparum [2]; Table 4, growth inhibition, read-out: Pf IC50) [nM]	IC50 (P. falciparum [2]; read-out: P. falciparum growth IC50) [nM]	resistance of had1 parasites compared with wild-type [3]	binding mode to DXR (DXR)
CC(=O)N(O)C/C=C/P(=O)(O)O [Compound 2]	18	203	150^a μg/mL	>200^a μg/mL	–	–	–	–	–
O=CN(O)CCCP(=O)(O)O [Fosmidomycin, reference compound]	–	–	–	–	0.175	854	854	resistant	competitively with substrate DOXP and noncompetitively with cofactor NADPH
